Measured values published in patent publication US5773459A, “Urea- and thiourea-type compounds” (Sugen, Inc., priority 1995, dated 1998).
Like-named read-outs stand apart in the source and are kept apart here.

How the values were obtained:
[1] = system: MCF7 cells overexpressing the HER2 kinase (MCF7-HER2); test: MCF-7/HER-2 SRB Growth Assay; format: cell-based; details: Homo sapiens, read-out: GROWTH DATA: MCF7-HER2 0.5% FBS
Description: The following examples illustrate the ability of the exemplary compounds to inhibit receptor tyrosine kinases, such as HER2 and/or EGFR. The following target cells were used for cellular kinase assays: NIH3T3 clone C7 (Honegger et al., supra) engineered to over-express human EGF receptor; NIH3T3 cells engineered to over-express a chimeric receptor containing the EGFR extracellular domain and the HER2 intracellular kinase domain; the human mammary carcinoma line BT474 (ATCC HTB2) expressing HER2; and the human glioblastoma line U1242 that expresses PDGFR-beta. Growth assays were carried out using human mammary epithelial SKBR3 (ATCC HTB30) cells (SKBR3 cells over-express HER2), SKOV3 (ATCC HTB77) human ovarian cancer cell line (SKOV3 cells also over-express HER2), A431 cells (A431 cells over-express EGFR) MCF7 human breast carcinoma cells, MCF7 cells overexpressing the HER2 kinase (MCF7-HER2), NIH3T3 cells, and NIH3T3 cells overexpressing the HER2 kinase (3T3-HER2.
MCF-7/HER-2 SRB Growth Assay
The protocol is basically the same as that above (for the MCF-7 Growth Assay) except that immediately before the 30 compound is added, the normal growth media is removed and 0.5% FBS/RPMI supplemented with 2 mM Glutamine is added onto the cells. The compound is also prepared in this 0.5% serum media. The plate of cells is incubated for four days and developed as usual.

PDGFR-beta = molecular target: T1, PDGFR-beta (Homo sapiens, UniProt P09619); test: PDGF-R Cellular Assay (cellular kinase ELISA); format: cell-based
T1 construct: the human glioblastoma line U1242 that expresses PDGFR-beta; endogenous in cells; host or cells: U1242 (U1242 MG) human glioblastoma
T1 sequence (P09619 33-1106): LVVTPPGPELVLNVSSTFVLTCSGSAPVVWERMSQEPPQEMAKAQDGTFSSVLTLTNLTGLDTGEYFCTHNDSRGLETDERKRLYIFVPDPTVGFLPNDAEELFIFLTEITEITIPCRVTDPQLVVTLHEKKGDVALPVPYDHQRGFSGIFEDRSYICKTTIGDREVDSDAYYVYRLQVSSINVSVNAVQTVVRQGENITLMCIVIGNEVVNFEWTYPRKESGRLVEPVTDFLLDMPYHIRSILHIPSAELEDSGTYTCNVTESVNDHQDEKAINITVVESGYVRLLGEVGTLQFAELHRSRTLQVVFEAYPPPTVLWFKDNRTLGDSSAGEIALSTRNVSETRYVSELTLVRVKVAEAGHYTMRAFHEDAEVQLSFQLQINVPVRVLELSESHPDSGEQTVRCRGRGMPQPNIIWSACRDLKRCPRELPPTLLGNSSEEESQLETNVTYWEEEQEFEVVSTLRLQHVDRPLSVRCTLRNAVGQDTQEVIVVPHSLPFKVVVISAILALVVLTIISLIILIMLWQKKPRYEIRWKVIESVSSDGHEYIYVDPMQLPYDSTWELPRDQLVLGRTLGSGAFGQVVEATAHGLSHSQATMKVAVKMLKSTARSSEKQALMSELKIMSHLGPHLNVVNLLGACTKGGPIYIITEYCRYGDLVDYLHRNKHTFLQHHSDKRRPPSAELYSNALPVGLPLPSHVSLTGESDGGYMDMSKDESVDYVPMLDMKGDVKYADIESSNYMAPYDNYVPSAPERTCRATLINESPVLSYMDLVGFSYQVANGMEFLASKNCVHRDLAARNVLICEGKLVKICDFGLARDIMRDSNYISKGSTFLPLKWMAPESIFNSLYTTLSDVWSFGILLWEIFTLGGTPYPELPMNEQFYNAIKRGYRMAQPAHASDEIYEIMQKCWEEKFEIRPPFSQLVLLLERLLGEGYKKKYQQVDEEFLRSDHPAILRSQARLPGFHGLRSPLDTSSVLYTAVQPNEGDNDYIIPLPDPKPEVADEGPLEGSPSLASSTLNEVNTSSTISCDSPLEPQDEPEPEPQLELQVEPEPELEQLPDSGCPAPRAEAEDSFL
Experimental: Growth assays were carried out using human mammary epithelial SKBR3 (ATCC HTB30) cells (SKBR3 cells over-express HER2), SKOV3 (ATCC HTB77) human ovarian cancer cell line (SKOV3 cells also over-express HER2), A431 cells (A431 cells over-express EGFR) MCF7 human breast carcinoma cells, MCF7 cells overexpressing the HER2 kinase (MCF7-HER2), NIH3T3 cells, and NIH3T3 cells overexpressing the HER2 kinase (3T3-HER2.
The PDGF cellular kinase assay was carried out as follows: cells are lysed in 0.2M Hepes, 0.15M NaCl, 10% V/V glycerol, 0.04% Triton X-100, 5 mM EDTA, 5 mM Na+ vanadate and 2 mM Na+ pyrophosphate; cell lysates are then added to an ELISA plate coated with an anti-PDGF receptor antibody (Genzyme); ELISA plates are coated at 0.5 μg of antibody/well in 150 μl of PBS for 18 hours at 4° C. prior to the addition of the lysate; the lysate is incubated in the coated plates for 1 hour and then washed four times in TBST (35 mM Tris-HCl pH 7.0, 0.15M NaCl, 0.1% Triton X100); anti-phosphotyrosine antibody (100 μl in PBS) is added and the mixture is incubated for 30 minutes at room temperature; the wells were then washed four times in TBST, a secondary antibody conjugated to POD (TAGO) is added to each well, and the treated well are incubated for 30 minutes at room temperature; the wells are then washed four times in TBST, ABTS/H2 O2 solution is added to each well and the wells are incubated for two minutes; absorbance is then measured at 410 nm.
U1242 MG cells were plated in 96-well plates at a concentration of 5×10^4 cells/well in cultured media containing 0.5% FBS. The cells were incubated for 24 hours. The cells were then treated with a particular compound for 2 hours followed by the addition of 100 ng/ml PDGF-BB and incubation for 10 minutes.
Cells were lysed in 0.2M Hepes, 0.15M NaCl, 10% V/V glycerol, 0.04% Triton X-100, 5 mM EDTA, 5 mM Na+ vanadate and 2 mM Na+ pyrophosphate. Cell lysates were then added to an ELISA plate coated with an anti-PDGF receptor antibody (Genzyme). ELISA plates were coated at 0.5 μg of antibody/well in 150 μl of PBS for 18 hours at 4° C. prior to the addition of the lysate.
The lysate was incubated in the coated plates for 1 hour and then washed four times in TBST (35 mM Tris-HCl pH 7.0, 0.15M NaCl, 0.1% Triton X-100). Anti-phosphotyrosine antibody (100 μl in PBS) was added and the mixture was incubated for 30 minutes at room temperature. The wells were then washed four times in TBST, a secondary antibody conjugated to POD (TAGO) was added to each well, and the treated well were incubated for 30 minutes at room temperature. The wells were then washed four times in TBST, ABTS/H2 O2 solution was added to each well and the wells were incubated for two minutes. Absorbance was then measured at 410 nm.

[2] = U1242 MG cells, PDGF-BB stimulated, read-out: ELISA DATA: PDGFR

Row | IC50 [1] | IC50 (PDGFR-beta; [2]) | Compound | IC50 (PDGFR-beta)
1 | 900 nM | > 50000 nM | CC(C)S(=O)(=O)c1csc(NC(=O)Nc2ccc(C(C)(C)C)cc2)c1Cl [Example Z1, N-[3-Chloro-4-(isopropylsulfonyl)thien-2-yl]-N'-(4-t-butylphenyl)urea] | –
2 | 300 nM | > 50000 nM | CC(C)S(=O)(=O)c1csc(NC(=O)Nc2cc(C(F)(F)F)cc(C(F)(F)F)c2)c1Cl [Example Z2, N-[3-Chloro-4-(isopropylsulfonyl)thien-2-yl]-N'-(3,5-di-trifluoromethylphenyl)urea] | –
3 | 1000 nM | > 100000 nM | N#Cc1ccc(NC(=S)Nc2ccc(S(=O)(=O)N3CCCCC3)cc2)cc1 [Example Z4, N-(4-Cyanophenyl)-N'-[4-[(piperid-1-yl)sulfonyl]phenyl]thiourea] | –

Row | Compound | IC50 [1] | IC50 (PDGFR-beta; [2]) | IC50 (PDGFR-beta)
4 | O=C(Nc1ccc(SC(F)(F)F)cc1)Nc1ccc(Oc2ccc(Cl)cc2Cl)nc1 [Example Z3] | 200 nM | – | > 100000 nM
